{"source": "PubChem BioAssay AID493130", "about": "(Broad Institute, 2011)", "note": "Inconclusive results are not listed. Activity calls are given as the source filed them.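 Rule for the calls: active = signal-lowering compounds whose fitted half-maximal concentration is at most ten times their highest tested dose; inconclusive = flat fit between -30 and -70%, or poor fit; inactive = flat within 30%, signal rising, or potency beyond limit.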"}
{"molecular_target": "POS-1 (Caenorhabditis elegans) binding to mex-3 RNA", "experiment": "C. elegans POS-1 RNA interaction disruptors – biochemical, fluorescence polarization, cherry-picked samples, set 2, counter-screen for MEX-5 RNA-binding inhibitor project, dose response (AID 493130);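 note: POS-1 as maltose binding protein fusion made in E. coli with FITC RNA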", "settings": "POS-1/mex-3 RNA fluorescence polarization, 1 h"}
{"smiles": "CN1CCN(c2ccc([N+](=O)[O-])c3no[n+]([O-])c23)CC1", "AC50": "3.3 µM"}
{"smiles": "CCN(CC)c1ccc(/C=C(/C#N)c2nc3ccc(C)cc3[nH]2)c(OC(C)C)c1", "AC50": "1.61 µM"}
{"smiles": "COc1ccc(Cn2c(O)c(/C=N/NC(=O)c3ccccc3O)c(=O)[nH]c2=O)cc1", "AC50": "6.22 µM"}
{"smiles": "CN(C)c1ccc2nc3c(=O)[nH]c(=O)nc-3n(CC(O)C(O)C(O)CO)c2c1", "note": "(centres undefined)", "AC50": "9.63 µM"}
{"smiles": "COc1ccc(NC(=O)c2cccc(-c3ccc(O)cc3)c2)cn1", "AC50": "3.93 µM"}
{"smiles": "Oc1ccc(/C=N/NC(=S)Nc2cccnc2)cc1O", "AC50": "9.5 µM"}
{"smiles": "O=c1ccc2cc3c([nH]c4ccc(Br)cc43)oc-2c1O", "AC50": "1.64 µM"}
{"smiles": "CC1(C)CC(=O)C2=C(C1)N=c1s/c(=C/c3ccc(F)c(F)c3)c(=O)n1C2c1ccc(F)cc1", "note": "(centres undefined)", "AC50": "> 10 µM (inactive)"}
{"smiles": "Cc1cccc(N=Nc2c(O)[nH]c3ccc(F)cc23)c1", "AC50": "1.87 µM"}
{"smiles": "CC(=O)Nc1cccc(C2=CC(c3ccco3)n3ncnc3N2)c1", "note": "(centres undefined)", "AC50": "5.81 µM"}
{"smiles": "C=CCn1c(=O)[nH]c2nc3cc(N=CN(C)C)c(C)cc3nc2c1=O", "AC50": "7.27 µM"}
{"smiles": "COC(=O)C1=COC(C)C2CN3CCc4c([nH]c5ccccc45)C3CC12", "note": "(centres undefined)", "AC50": "7.17 µM"}
{"smiles": "CCC(=O)Oc1ccc2c(c1)O/C(=C\\c1ccco1)C2=O", "AC50": "5.63 µM"}
{"smiles": "O=C(N/N=C/c1c(O)n(Cc2ccccc2)c(=O)[nH]c1=O)c1ccccc1O", "AC50": "4.84 µM"}
{"smiles": "CNC(=O)/C(C#N)=C/c1ccc(-c2nc3ccccc3s2)o1", "AC50": "3.91 µM"}
{"smiles": "CCCCN1C(=O)C2Cc3c([nH]c4ccccc34)CN2C1=S", "note": "(centres undefined)", "AC50": "8.04 µM"}
{"molecular_target": "POS-1 (Caenorhabditis elegans) binding to mex-3 RNA", "experiment": "C. elegans POS-1 RNA interaction disruptors – biochemical, fluorescence polarization, cherry-picked samples, set 2, counter-screen for MEX-5 RNA-binding inhibitor project, dose response (AID 493130);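 note: POS-1 as maltose binding protein fusion made in E. coli with FITC RNA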", "settings": "POS-1/mex-3 RNA fluorescence polarization, 1 h; at 10 µM (top of the series)"}
{"smiles": "COc1ccccc1N=Nc1c(C)[nH][nH]c1=O", "activity change, negative = inhibition": "inactive"}
{"smiles": "COc1ccc(NC(=S)NNC(=O)C(C)n2nc(C)c([N+](=O)[O-])c2C)cc1", "note": "(centres undefined)", "activity change, negative = inhibition": "inactive"}
{"smiles": "CN(N)c1ccc2c(C(F)(F)F)cc(C(F)(F)F)nc2n1", "activity change, negative = inhibition": "inactive"}
{"smiles": "CCCCC1=CC2=C(c3ccco3)C(=O)C(C)(OC(=O)c3ccc(OC)cc3)C(=O)C2=CN1C(CO)CO", "note": "(centres undefined)", "activity change, negative = inhibition": "inactive"}
{"smiles": "COc1ccccc1C(=O)NNC(=O)c1csc(N2CCOCC2)n1", "activity change, negative = inhibition": "inactive"}
{"smiles": "O=[N+]([O-])c1cc([N+](=O)[O-])c2cccnc2c1Oc1ccccc1O", "activity change, negative = inhibition": "inactive"}
{"smiles": "Cn1ncc2c(NNC(=O)c3ccccc3Cl)ncnc21", "activity change, negative = inhibition": "inactive"}
{"smiles": "CN1CCc2c(sc(NC(=O)c3ccc(S(=O)(=O)N4CCCC4)cc3)c2C(N)=O)C1", "activity change, negative = inhibition": "inactive"}
{"smiles": "COc1ccc(NCc2cccnc2)cc1", "activity change, negative = inhibition": "inactive"}
{"smiles": "COC(=O)c1ccccc1N=Nc1c(N)n[nH]c1N", "activity change, negative = inhibition": "inactive"}
{"smiles": "Nc1cnccc1C(=O)O", "activity change, negative = inhibition": "inactive"}
{"smiles": "CC(=O)Nc1ccc(/C=N\\NC(=O)CNS(=O)(=O)c2ccc([N+](=O)[O-])cc2)cc1", "activity change, negative = inhibition": "inactive"}
{"smiles": "COC(=O)C1=C(C)N(c2ccc(C)c(C)c2)/C(=C/c2cccs2)C1=O", "activity change, negative = inhibition": "inactive"}
{"smiles": "CCc1ccc(N2C(=O)NC(=O)/C(=C\\c3cccn3CCOc3ccc(C(C)C)cc3)C2=O)cc1", "activity change, negative = inhibition": "inactive"}
{"smiles": "O=C(O)c1c2c(nc3ccccc13)/C(=C/c1ccc(O)cc1)CC2", "activity change, negative = inhibition": "inactive"}
{"smiles": "CCCCn1c(O)c(N=Nc2ccccn2)c2ccccc21", "activity change, negative = inhibition": "inactive"}
{"smiles": "Cn1c(C2=C(O)CN(c3ccccc3)C2=N)nc2ccccc21", "activity change, negative = inhibition": "inactive"}
{"smiles": "Cc1cccc(/C=N/NC(=O)Cn2nnnc2N)n1", "activity change, negative = inhibition": "inactive"}
{"smiles": "COc1ccc(N(C(=O)CCl)C(C)(C(=O)Nc2c(C)cccc2C)c2ccccn2)cc1", "note": "(centres undefined)", "activity change, negative = inhibition": "inactive"}
{"smiles": "Cc1c(NC(=O)c2ccc(=O)oc2)c(=O)n(-c2ccccc2)n1C", "activity change, negative = inhibition": "inactive"}
{"smiles": "CC1=NOC(=O)/C1=C/c1ccc2c(c1)OCO2", "activity change, negative = inhibition": "inactive"}
{"smiles": "O=C(Nc1ccc(OCc2ccccc2)cc1)Nc1cccnc1", "activity change, negative = inhibition": "inactive"}
{"smiles": "Oc1ccc(/C=N/Nc2ncnc3nc[nH]c23)cc1", "activity change, negative = inhibition": "inactive"}
{"smiles": "CC(=O)Nc1ccc2c(c1)C(=O)N(c1cccc(C)c1)C2=O", "activity change, negative = inhibition": "inactive"}
{"smiles": "CCN(CC(=O)Nc1ccc(NC(C)=O)cc1)Cc1c(O)ccc2cc(Br)ccc12", "activity change, negative = inhibition": "inactive"}
{"smiles": "O=C(NNC(=O)c1ccc([N+](=O)[O-])o1)c1ccccc1", "activity change, negative = inhibition": "inactive"}
{"smiles": "CCCCn1c(N)c(N(Cc2ccccc2OC)C(=O)C(C)C)c(=O)[nH]c1=O", "activity change, negative = inhibition": "inactive"}
{"smiles": "O=C(NNC(=O)c1ccco1)c1csc(N2CCOCC2)n1", "activity change, negative = inhibition": "inactive"}
{"smiles": "CN1CCc2c(sc(NC(=O)C3CCCN3S(=O)(=O)c3ccc(Cl)s3)c2C(N)=O)C1", "note": "(centres undefined)", "activity change, negative = inhibition": "inactive"}
{"smiles": "CCCc1cc(C(=O)Cc2ccc(C(=O)OCC)o2)c(O)cc1O", "activity change, negative = inhibition": "inactive"}
{"smiles": "CC1=CC2=C(OC1N(C)C)c1cccc3cccc(c13)C2=O", "note": "(centres undefined)", "activity change, negative = inhibition": "inactive"}
{"smiles": "CN(C)c1ccc(/C=C(\\C#N)C(=O)c2ccccc2)cc1", "activity change, negative = inhibition": "inactive"}
{"smiles": "C#CCN1C(=O)S/C(=C\\c2ccc(-c3ccc(Cl)c(C(=O)O)c3)o2)C1=O", "activity change, negative = inhibition": "inactive"}
{"smiles": "O=[N+]([O-])c1ccc(C2=CSC3=NCCN23)cc1", "activity change, negative = inhibition": "inactive"}
{"smiles": "COCCNc1nnc(SCC(=O)NNC(=O)c2ccc([N+](=O)[O-])cc2)s1", "activity change, negative = inhibition": "inactive"}
{"smiles": "Cc1c(N=NC2=C(O)CCCC2=O)c(=O)n(-c2ccccc2)n1C", "activity change, negative = inhibition": "inactive"}
{"smiles": "N=c1c(S(=O)(=O)c2ccc(Cl)cc2)cc2c(=O)n3ccccc3nc2n1CC1CCCO1", "note": "(centres undefined)", "activity change, negative = inhibition": "inactive"}
{"smiles": "CCOc1ccccc1N=NC1C(=O)N(C(N)=S)N=C1C", "note": "(centres undefined)", "activity change, negative = inhibition": "inactive"}
{"smiles": "CN(C)c1ccc(/C=N/NC(=O)c2cnc3ccccc3c2)cc1", "activity change, negative = inhibition": "inactive"}
{"smiles": "CC(=O)N1CCc2c(sc(NC(=O)C3CCCN3S(=O)(=O)c3cccs3)c2C#N)C1", "note": "(centres undefined)", "activity change, negative = inhibition": "inactive"}
{"smiles": "Cc1cccc(NC(=O)CN2C(=O)S/C(=C\\c3ccc(-c4cccc(C(=O)O)c4C)o3)C2=O)c1", "activity change, negative = inhibition": "inactive"}
{"smiles": "O=C(NC1CCSc2ccccc21)c1cccc(Br)c1", "note": "(centres undefined)", "activity change, negative = inhibition": "inactive"}
{"smiles": "CNC(=O)/C(C#N)=C/c1ccc(-c2ccc(Cl)cc2)o1", "activity change, negative = inhibition": "inactive"}
{"smiles": "COc1ccc(C[C@@H]2c3cc(O)c(OC)cc3CCN2C)cc1O", "activity change, negative = inhibition": "inactive"}
{"smiles": "Cc1cc(=O)n2[nH]c(N)c(N=Nc3ccccc3F)c2n1", "activity change, negative = inhibition": "inactive"}
{"smiles": "O=C(CCN1C(=O)/C(=C/c2ccccc2Cl)SC1=S)NNC(=O)c1ccccc1O", "activity change, negative = inhibition": "inactive"}
{"smiles": "CN1C(=O)C(=Cc2sc(=O)n(-c3ccccc3)c2N(C)C)C(=O)N(C)C1=O", "activity change, negative = inhibition": "inactive"}
{"smiles": "COc1cc(/C=N/NC(=S)Nc2cccc(C(=O)O)c2)ccc1O", "activity change, negative = inhibition": "inactive"}
{"smiles": "CC(C)(C)CC(C)(C)NCC(O)COc1ccc2c(c1)CCC2", "note": "(centres undefined)", "activity change, negative = inhibition": "inactive"}
{"smiles": "CCOC(=O)c1ccc(N=Nc2c(C)c(C#N)c(O)[nH]c2=O)cc1", "activity change, negative = inhibition": "inactive"}
{"smiles": "Cn1c(O)c(C2=c3ccccc3=NC2=O)[nH]c1=S", "activity change, negative = inhibition": "inactive"}
{"smiles": "CCN=c1scc(-c2ccco2)n1/N=C/c1ccc(O)cc1", "activity change, negative = inhibition": "inactive"}
{"smiles": "COC(=O)/C=C1/S/C(=N/NC(=O)c2ccc(Cl)cc2Cl)NC1=O", "activity change, negative = inhibition": "inactive"}
